Experimental data as given in patent US8637523B2, “Compounds for the reduction of beta-amyloid production” (Bristol-Myers Squibb Company, priority 2010, dated 2014).
pIC50: −log10 of the molar value. Like-named read-outs stand apart in the source and are kept apart here.

Tested on: Aβ42
Assay: Cellular assay for inhibition of Aβ1-42 production (H4 APP751 SWE clone 8.20)
Format: cell-based
Conditions: H4 APP751 SWE clone 8.20 cells, 19 h incubation
Method: Cellular Assays for Inhibition of Aβ1-40 and Aβ1-42 Production
H4 cells stably transfected with APP751 containing the Swedish mutation (H4 APP751 SWE clone 8.20, developed at BMS) were maintained in log phase through twice weekly passage at a 1:20 split. […] Following incubation for 19 h in 5% CO2 at 37° C., plates were briefly centrifuged (1000 rpm, 5 min). A 10 μl aliquot from each well was transferred to a second assay plate (Costar 3709) for Aβ40 measurements. Antibody cocktails were freshly prepared by dilution into 40 mM Tris-HCl (pH 7.4) with 0.2% BSA and added to assay plates. For Aβ42 measurements, antibodies specific for the Aβ42 neoepitope (565, developed at BMS; conjugated to the Wallac reagent (Perkin Elmer)) and the N-terminal sequence of Aβ peptide (26D6, developed at SIBIA; conjugated to APC (Perkin Elmer)) were mixed and 20 μl of the mixture was added to each well of the incubated cell plate yielding a final concentration of 0.8 ng/well 565 and 75 ng/well 26D6. For the Aβ40 measurements, antibodies specific for the Aβ40 neoepitope (TSD, developed at BMS; conjugated to the Wallac reagent (Perkin Elmer)) and 26D6 as described above were mixed and 20 μl of the mixture was added to the 10 μl aliquots which had been removed previously from the cell plate yielding a final concentration of 1.6 ng/well TSD and 17.5 ng/well 26D6. Assay plates containing antibodies were sealed with aluminum foil and incubated overnight at 4° C. Signal was determined using a Viewlux counter (Perkin Elmer) and IC50 values determined using curve fitting in CurveMaster (Excel Fit based).

[1] = 19 h, read-out: Activity Rating (Aβ42 cellular IC50), class symbol
[2] = read-out: Activity Rating (Aβ42 cellular IC50), class symbol
[3] = unit inferred, read-out: Activity Rating (Aβ42 cellular IC50), numeric value
[4] = 19 h, unit inferred, read-out: Activity Rating (Aβ42 cellular IC50), numeric value

Compound | pIC50 [1] | pIC50 [2] | other results
Clc1cn(-c2ccc3cc2OCCCNc2nc(nc4c2CCC4c2ccccc2)N3)cn1 (stereo not shown) [Example 9A, 7-(4-chloro-1H-imidazol-1-yl)-17-phenyl-11,12,13,15,16,17-hexahydro-10H-14,2-(azeno)-8,4-(metheno)cyclopenta[g][1,5,9,11]oxatriazacyclohexadecine] | > 8.00 |  | 
Clc1cn(-c2ccc3cc2OCCCCNc2nc(nc4c2CCC4c2ccccc2)N3)cn1 (stereo not shown) [Example 12B, 7-(4-chloro-1H-imidazol-1-yl)-18-phenyl-10,11,12,13,14,16,17,18-octahydro-15,2-(azeno)-8,4-(metheno)cyclopenta[h][1,6,10,12]oxatriazacycloheptadecine] |  | 7.00 to 8.00 | 
Cc1ncn(-c2ccc3cc2OC/C=C/CNc2nc(nc4c2CCC4c2ccc(F)cc2F)N3)n1 (stereo not shown) [Example 52A, (11E)-18-(2,4-difluorophenyl)-7-(3-methyl-1H-1,2,4-triazol-1-yl)-10,13,14,16,17,18-hexahydro-15,2-(azeno)-8,4-(metheno)cyclopenta[h][1,6,10,12]oxatriazacycloheptadecine] |  |  | pIC50 [3]: 7.96
Cc1ncn(-c2ccc3cc2OCC(O)CCNc2nc(nc4c2CCC4c2ccc(F)cc2)N3)n1 (single isomer, unassigned) [Example 72C, 18-(4-fluorophenyl)-7-(3-methyl-1H-1,2,4-triazol-1-yl)-10,11,12,13,14,16,17,18-octahydro-15,2-(azeno)-8,4-(metheno)cyclopenta[h][1,6,10,12]oxatriazacycloheptadecin-11(3H)-ol] |  | > 8.00 | 
Clc1cn(-c2ccc3cc2OCC=CCCc2nc(nc4c2CCC4c2ccccc2)N3)cn1 (stereo not shown) [Example 17A, (11E)-7-(4-chloro-1H-imidazol-1-yl)-18-phenyl-10,13,14,16,17,18-hexahydro-15,2-(azeno)-8,4-(metheno)cyclopenta[h][1,10,12]oxadiazacycloheptadecine] |  |  | pIC50 [3]: 8.25
CN1CCCOc2cc(ccc2-n2cnc(Cl)c2)Nc2nc3c(c1n2)CCC3c1ccc(F)cc1F (stereo not shown) [Example 20A, 7-(4-chloro-1H-imidazol-1-yl)-17-(2,4-difluorophenyl)-13-methyl-11,12,13,15,16,17-hexahydro-10H-14,2-(azeno)-8,4-(metheno)cyclopenta[g][1,5,9,11]oxatriazacyclohexadecine] | > 8.00 |  | 
Cc1ncn(-c2ccc3cc2OCCCCN(C)c2nc(nc4c2CCC4c2ccc(F)cc2F)N3)n1 (stereo not shown) [Example 61B, 18-(2,4-difluorophenyl)-14-methyl-7-(3-methyl-1H-1,2,4-triazol-1-yl)-10,11,12,13,14,16,17,18-octahydro-15,2-(azeno)-8,4-(metheno)cyclopenta[h][1,6,10,12]oxatriazacycloheptadecine] | 7.00 to 8.00 |  | 
N#Cc1ccc2cc1OCCCCNc1nc(nc3c1CCC3c1ccccc1)N2 (stereo not shown) [Example 23A, 7-cyano-18-phenyl-10,11,12,13,14,16,17,18-octahydro-15,2-(azeno)-8,4-(metheno)cyclopenta[h][1,6,10,12]oxatriazacycloheptadecine] | 7.00 to 8.00 |  | 
Cc1ncnn1-c1ccc2cc1OCC=CCNc1nc(nc3c1CCC3c1ccc(F)cc1F)N2 (stereo not shown) [Example 54A, (11E)-18-(2,4-difluorophenyl)-7-(5-methyl-1H-1,2,4-triazol-1-yl)-10,13,14,16,17,18-hexahydro-15,2-(azeno)-8,4-(metheno)cyclopenta[h][1,6,10,12]oxatriazacycloheptadecine] |  | > 8.00 | 
Cc1ncnn1-c1ccc2cc1OCCCCNc1nc(nc3c1CCC3c1ccccc1)N2 (stereo not shown) [Example 47B, 7-(5-methyl-1H-1,2,4-triazol-1-yl)-18-phenyl-10,11,12,13,14,16,17,18-octahydro-15,2-(azeno)-8,4-(metheno)cyclopenta[h][1,6,10,12]oxatriazacycloheptadecine] | 7.00 to 8.00 |  | 
Cc1ncn(-c2ccc3cc2OCCCCN(C)c2nc(nc4c2CCC4c2ccccc2)N3)n1 (stereo not shown) [Example 50B, 14-methyl-7-(3-methyl-1H-1,2,4-triazol-1-yl)-18-phenyl-10,11,12,13,14,16,17,18-octahydro-15,2-(azeno)-8,4-(metheno)cyclopenta[h][1,6,10,12]oxatriazacycloheptadecine] | 7.00 to 8.00 |  | 
CN1CCCCOc2cc(ccc2-n2cnc(Cl)c2)Nc2nc3c(c1n2)CCC3c1ccc(F)cc1F (stereo not shown) [Example 19B, 7-(4-chloro-1H-imidazol-1-yl)-18-(2,4-difluorophenyl)-14-methyl-10,11,12,13,14,16,17,18-octahydro-15,2-(azeno)-8,4-(metheno)cyclopenta[h][1,6,10,12]oxatriazacycloheptadecine] |  | 7.00 to 8.00 | 
Cc1ncnn1-c1ccc2cc1OCCCCN(C)c1nc(nc3c1CCC3c1ccccc1)N2 (stereo not shown) [Example 48A, 14-methyl-7-(5-methyl-1H-1,2,4-triazol-1-yl)-18-phenyl-10,11,12,13,14,16,17,18-octahydro-15,2-(azeno)-8,4-(metheno)cyclopenta[h][1,6,10,12]oxatriazacycloheptadecine] | > 8.00 |  | 
Clc1cn(-c2ccc3cc2OC/C=C\CCc2nc(nc4c2CCC4c2ccccc2)N3)cn1 (single isomer, unassigned) [Example 16B, (11Z)-7-(4-chloro-1H-imidazol-1-yl)-18-phenyl-10,13,14,16,17,18-hexahydro-15,2-(azeno)-8,4-(metheno)cyclopenta[h][1,10,12]oxadiazacycloheptadecine] |  | 7.00 to 8.00 | 
(11E)-7-cyano-18-(2,4-difluorophenyl)-10,13,14,16,17,18-hexahydro-15,2-(azeno)-8,4-(metheno)cyclopenta[h][1,6,10,12]oxatriazacycloheptadecine [Example 25A] |  | 7.00 to 8.00 | 
CC1C/C=C\COc2cc(ccc2-n2cnc(Cl)c2)Nc2nc(c3c(n2)C(c2ccccc2)CC3)N1 (stereo not shown) [Example 6B, (11Z)-7-(4-chloro-1H-imidazol-1-yl)-14-methyl-19-phenyl-3,10,13,14,15,17,18,19-octahydro-2,16-(azeno)-8,4-(metheno)cyclopenta[j][1,7,9,13]oxatriazacyclooctadecine] | 7.00 to 8.00 |  | 
CC1C/C=C/COc2cc(ccc2-n2cnc(Cl)c2)Nc2nc(c3c(n2)C(c2ccccc2)CC3)N1 (stereo not shown) [Example 7B, (11E)-7-(4-chloro-1H-imidazol-1-yl)-14-methyl-19-phenyl-3,10,13,14,15,17,18,19-octahydro-2,16-(azeno)-8,4-(metheno)cyclopenta[j][1,7,9,13]oxatriazacyclooctadecine] | 6.00 to 7.00 |  | 
N#Cc1ccc2cc1OCCCNc1nc(nc3c1CCC3c1ccc(F)cc1F)N2 (stereo not shown) [Example 33A, 7-cyano-17-(2,4-difluorophenyl)-11,12,13,15,16,17-hexahydro-10H-14,2-(azeno)-8,4-(metheno)cyclopenta[g][1,5,9,14]oxatriazacyclohexadecine] | 7.00 to 8.00 |  | 
Cc1ncn(-c2ccc3cc2OC/C=C\CN(C)c2nc(nc4c2CCC4c2ccccc2)N3)n1 (stereo not shown) [Example 44B, (11Z)-14-methyl-7-(3-methyl-1H-1,2,4-triazol-1-yl)-18-phenyl-10,13,14,16,17,18-hexahydro-15,2-(azeno)-8,4-(metheno)cyclopenta[h][1,6,10,12]oxatriazacycloheptadecine] |  |  | pIC50 [4]: 7.52
CC1C/C=C/COc2cc(ccc2-n2cnc(Cl)c2)Nc2nc(c3c(n2)C(c2ccccc2)CC3)N1 (stereo not shown) [Example 7A, (11E)-7-(4-chloro-1H-imidazol-1-yl)-14-methyl-19-phenyl-3,10,13,14,15,17,18,19-octahydro-2,16-(azeno)-8,4-(metheno)cyclopenta[j][1,7,9,13]oxatriazacyclooctadecine] |  |  | pIC50 [4]: 8.06
(11Z)-7-cyano-18-phenyl-10,13,14,16,17,18-hexahydro-15,2-(azeno)-8,4-(metheno)cyclopenta[h][1,10,12]oxadiazacycloheptadecine [Example 36A] |  | 6.00 to 7.00 | 
(11E)-7-(4-chloro-1H-imidazol-1-yl)-18-phenyl-10,13,14,16,17,18-hexahydro-15,2-(azeno)-8,4-(metheno)cyclopenta[h][1,6,10,12]oxatriazacycloheptadecine [Example 2B] |  |  | pIC50 [3]: 7.82
(11Z)-7-(4-chloro-1H-imidazol-1-yl)-18-phenyl-10,13,14,16,17,18-hexahydro-15,2-(azeno)-8,4-(metheno)cyclopenta[h][1,6,10,12]oxatriazacycloheptadecine [Example 1B] |  | 7.00 to 8.00 | 
CN1CCCCOc2cc(ccc2-n2cnc(Cl)c2)Nc2nc3c(c1n2)CCC3c1ccccc1 (stereo not shown) [Example 13B, 7-(4-chloro-1H-imidazol-1-yl)-14-methyl-18-phenyl-10,11,12,13,14,16,17,18-octahydro-15,2-(azeno)-8,4-(metheno)cyclopenta[h][1,6,10,12]oxatriazacycloheptadecine] |  |  | pIC50 [4]: 7.59
Cc1ncn(-c2ccc3cc2OCCCN(C)c2nc(nc4c2CCC4c2ccccc2)N3)n1 (stereo not shown) [Example 60B, 13-methyl-7-(3-methyl-1H-1,2,4-triazol-1-yl)-17-phenyl-11,12,13,15,16,17-hexahydro-10H-14,2-(azeno)-8,4-(metheno)cyclopenta[g][1,5,9,11]oxatriazacyclohexadecine] | 7.00 to 8.00 |  | 
